Experimental findings from patent US20070179122A1, “Beta-Aminoacid-Derivatives As Factor Xa Inhibitors” (Sanofi-Aventis Deutschland GmbH, priority 2004, published 2007) are described below.

T1 sequence (P00742 235-488 limits assumed): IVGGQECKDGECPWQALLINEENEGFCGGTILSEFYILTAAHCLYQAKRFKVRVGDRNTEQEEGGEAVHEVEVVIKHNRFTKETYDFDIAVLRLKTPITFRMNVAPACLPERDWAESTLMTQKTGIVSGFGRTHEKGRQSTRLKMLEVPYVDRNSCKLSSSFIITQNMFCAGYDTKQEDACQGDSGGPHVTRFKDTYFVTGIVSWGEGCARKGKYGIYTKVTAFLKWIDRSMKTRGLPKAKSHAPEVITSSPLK
T1 sequence (P00742 41-179 partner limits assumed): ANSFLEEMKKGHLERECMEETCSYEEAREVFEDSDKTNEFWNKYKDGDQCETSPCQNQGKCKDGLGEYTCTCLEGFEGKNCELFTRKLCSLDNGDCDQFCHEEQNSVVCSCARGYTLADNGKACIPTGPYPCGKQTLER

The assay concerns the target T1, human factor Xa (Homo sapiens, UniProt P00742).
T1 construct: 25 μl human factor Xa (Enzyme Research Laboratories, Inc; South Bend, Ind.); purchased Enzyme Research Laboratories, Inc; South Bend, Ind
The assay can be described thus: Factor Xa Assay (chromogenic, purified enzyme). The assay is classed as biochemical. The note with it: inhibition constant for inhibition of factor Xa; chromogenic substrate S-2765 140 μM, enzyme 0.5 nM, 25° C., pH 7.8; Ki=IC50/{1+(substrate concentration/Km)}; read-out: Ki(FXa). An excerpt:
The ability of the compounds of the formula I to inhibit factor Xa or factor VIIa or other enzymes like thrombin, plasmin, or trypsin can be assessed by determining the concentration of the compound of the formula I that inhibits enzyme activity by 50%, i. e. the IC50 value, which was related to the inhibition constant Ki. Purified enzymes were used in chromogenic assays. […] For calculating the inhibition constant Ki, the IC50 value was corrected for competition with substrate using the formula Ki=IC50/{1+(substrate concentration/Km)} wherein Km is the Michaelis-Menten constant (Chen and Prusoff, Biochem. Pharmacol. 22 (1973) 3099-3108; I. H. Segal, Enzyme Kinetics, 1975, John Wiley & Sons, New York, 100-125; which were incorporated herein by reference). a) Factor Xa Assay
The IC50 was determined by combining in appropriate wells of a Costar half-area microtiter plate 25 μl human factor Xa (Enzyme Research Laboratories, Inc.; South Bend, Ind.) in TBS-PEG; 40 μl 10% (v/v) DMSO in TBS-PEG (uninhibited control) or various concentrations of the compound to be tested diluted in 10% (v/v) DMSO in TBS-PEG; and substrate S-2765 (N(α)-benzyloxycarbonyl-D-Arg-Gly-L-Arg-p-nitroanilide; Kabi Pharmacia, Inc.; Franklin, Ohio) in TBS-PEG.
The assay was performed by pre-incubating the compound of formula I plus enzyme for 10 min. Then the assay was initiated by adding substrate to obtain a final volume of 100 μl. The initial velocity of chromogenic substrate hydrolysis was measured by the change in absorbance at 405 nm using a Bio-tek Instruments kinetic plate reader (Ceres UV900HDi) at 25° C. during the linear portion of the time course (usually 1.5 min after addition of substrate). The enzyme concentration was 0.5 nM and substrate concentration was 140 μM.
For the compound `O=C(CCNC(=O)c1ccc(Cl)s1)Nc1ccc(-n2ccncc2=O)cc1` [Example 2, 5-Chloro-thiophene-2-carboxylic acid {2-[4-(2-oxo-2H-pyrazin-1-yl)-phenylcarbaminyl]-ethyl}-amide], the Ki came out at 7 nM.

For `O=C(CCNC(=O)c1ccc(Cl)cc1)Nc1ccc(N2CCOCC2=O)cc1` [Example 3, 4-Chloro-N-{2-[4-(3-oxo-morpholin-4-yl)-phenylcarbaminyl]-ethyl}-benzamide], the inhibition constant Ki is 1390 nM.

Consider `O=C(NCCC(=O)N1CCc2cc(-n3ccncc3=O)ccc21)c1ccc(Cl)s1` [Example 4, 5-Chloro-thiophene-2-carboxylic acid {3-oxo-3-[5-(2-oxo-2H-pyrazin-1-yl)-2,3-dihydro-indol-1-yl]-propyl}-amide], for which the inhibitory constant (Ki) is 40 nM.

Regarding `O=C(NCCC(=O)n1ccc2cc(-n3ccncc3=O)ccc21)c1ccc(Cl)s1` [Example 5, 5-Chloro-thiophene-2-carboxylic acid {3-oxo-3-[5-(2-oxo-2H-pyrazin-1-yl)-indol-1-yl]-propyl}-amide], the Ki is 8 nM.

On to `O=C(CCNC(=O)c1ccc(Cl)s1)Nc1ccc(-n2ccncc2=O)cc1F` [Example 6, 5-Chloro-thiophene-2-carboxylic acid {2-[2-fluoro-4-(2-oxo-2H-pyrazin-1-yl)-phenylcarbaminyl]-ethyl}-amide], for which the Ki stood at 4 nM.

Take `O=C(NC[C@@H](NCC(F)F)C(=O)Nc1ccc(N2CCOCC2=O)c(C(F)(F)F)c1)c1ccc(Cl)s1` [Example 7, 5-Chloro-thiophene-2-carboxylic acid {(R)-2-(2,2-difluoro-ethylamino)-2-[4-(3-oxo-morpholin-4-yl)-3-trifluoromethyl-phenylcarbaminyl]-ethyl}-amide]: the Ki came to 59 nM.

As for `O=C(CCNS(=O)(=O)c1ccc(Cl)s1)Nc1ccc(N2CCOCC2=O)cc1` [Example 8, 3-(5-Chloro-thiophene-2-sulfonylamino)-N-[4-(3-oxo-morpholin-4-yl)-phenyl]-propionamide], the inhibitory constant (Ki) amounted to 375 nM.

`O=C(CCNC(=O)c1ccc(Cl)s1)Nc1ccc(N2CCOCS2(=O)=O)cc1` [Example 9, 5-Chloro-thiophene-2-carboxylic acid {2-[4-(3,3-dioxo-[1,3,4]oxathiazinan-4-yl)-phenylcarbaminyl]-ethyl}-amide]: the Ki is 30 nM.

`O=C(NCC(F)(F)C(=O)Nc1ccc(-n2ccncc2=O)cc1)c1ccc(Cl)s1` [Example 10, 5-Chloro-thiophene-2-carboxylic acid {2,2-difluoro-2-[4-(2-oxo-2H-pyrazin-1-yl)-phenylcarbaminyl]-ethyl}-amide]: the Ki was determined as 8 nM.

`O=C(NCC(F)(F)C(=O)Nc1ccc(N2CCOCC2=O)cc1)c1ccc(Cl)s1` [Example 11, 5-Chloro-thiophene-2-carboxylic acid {2,2-difluoro-2-[4-(3-oxo-morpholin-4-yl)-phenylcarbaminyl]-ethyl}-amide]: the Ki turned out to be 18 nM.

Regarding `N=C(N)c1cccc(C(=O)NCCC(=O)Nc2ccc(-n3ccncc3=O)cc2)c1` [Example 12, 3-Carbamimidoyl-N-{2-[4-(2-oxo-2H-pyrazin-1-yl)-phenylcarbaminyl]-ethyl}-benzamide], the inhibitory constant (Ki) stood at 100 nM.

Turning to `COC(=O)c1cc(NC(=O)CCNC(=O)c2ccc(Cl)s2)ccc1N1CCOCC1=O` [Example 13, 5-{3-[(5-Chloro-thiophene-2-carbonyl)-amino]-propionylamino}-2-(3-oxo-morpholin-4-yl)-benzoic acid methyl ester], the Ki was determined as 263 nM.

With `O=C(CCNC(=O)c1ccc(Cl)s1)Nc1ccc(N2CCOCC2=O)c(C(=O)O)c1` [Example 14, 5-{3-[(5-Chloro-thiophene-2-carbonyl)-amino]-propionylamino}-2-(3-oxo-morpholin-4-yl)-benzoic acid], the Ki is 30000 nM.

Take `O=C(CCNC(=O)c1ccc(Cl)s1)Nc1ccc(N2CCOCC2=O)nc1` [Example 15, 5-Chloro-thiophene-2-carboxylic acid {2-[6-(3-oxo-morpholin-4-yl)-pyridin-3-ylcarbamoyl]-ethyl}-amide]: the Ki came out at 194 nM.

On to `O=C(CCNC(=O)c1ccc(Cl)s1)Nc1ccc(N2CCOCC2=O)c(F)c1` [Example 16, 5-Chloro-thiophene-2-carboxylic acid {2-[3-fluoro-4-(3-oxo-morpholin-4-yl)-phenylcarbaminyl]-ethyl}-amide], for which the inhibitory constant (Ki) was 15 nM.

On to `COC(=O)c1cc(N2CCOCC2=O)ccc1NC(=O)CCNC(=O)c1ccc(Cl)s1` [Example 18, 2-{3-[(5-Chloro-thiophene-2-carbonyl)-amino]-propionylamino}-5-(3-oxo-morpholin-4-yl)-benzoic acid methyl ester], for which the Ki is 3 nM.

With `COC(=O)c1cc(-n2ccccc2=O)ccc1NC(=O)CCNC(=O)c1ccc(Cl)s1` [Example 19, 2-{3-[(5-Chloro-thiophene-2-carbonyl)-amino]-propionylamino}-5-(2-oxo-2H-pyridin-1-yl)-benzoic acid methyl ester], the inhibitory constant (Ki) came out at 2 nM.

`O=C(CCNC(=O)c1ccc(Cl)s1)Nc1ccc(-n2ccccc2=O)cc1C(=O)O` [Example 20, 2-{3-[(5-Chloro-thiophene-2-carbonyl)-amino]-propionylamino}-5-(2-oxo-2H-pyridin-1-yl)-benzoic acid]: the Ki was determined as 11 nM.

For `O=C(CCNC(=O)c1ccc(Cl)s1)Nc1ccc(-n2ccc(=O)cc2)cc1` [Example 21, 5-Chloro-thiophene-2-carboxylic acid {2-[4-(4-oxo-4H-pyridin-1-yl)-phenylcarbaminyl]-ethyl}-amide], the inhibition constant Ki came out at 260 nM.

For `O=C(CCNC(=O)c1ccc(Cl)cc1)Nc1ccc(-n2ccc(=O)cc2)cc1` [Example 22, 4-Chloro-N-{2-[4-(4-oxo-4H-pyridin-1-yl)-phenylcarbaminyl]-ethyl}-benzamide], the Ki was 4000 nM.

As to `COC(=O)CN(C(=O)CCNC(=O)c1ccc(Cl)s1)c1ccc(N2CCOCC2=O)cc1` [Example 23, {{3-[(5-Chloro-thiophene-2-carbonyl)-amino]-propionyl}-[4-(3-oxo-morpholin-4-yl)-phenyl]-amino}-acetic acid methyl ester], the Ki is 212 nM.

On to `O=C(O)CN(C(=O)CCNC(=O)c1ccc(Cl)s1)c1ccc(N2CCOCC2=O)cc1` [Example 24, {{3-[(5-Chloro-thiophene-2-carbonyl)-amino]-propionyl}-[4-(3-oxo-morpholin-4-yl)-phenyl]-amino}-acetic acid], for which the inhibition constant (Ki) worked out at 228 nM.

Consider `O=C(NCCC(=O)N(CC(F)F)c1ccc(N2CCOCC2=O)cc1)c1ccc(Cl)s1` [Example 25, 5-Chloro-thiophene-2-carboxylic acid (2-{(2,2-difluoro-ethyl)-[4-(3-oxo-morpholin-4-yl)-phenyl]-carbamoyl}-ethyl)-amide], for which the inhibition constant (Ki) came out at 383 nM.

Regarding `O=C(N[C@H](CNC(=O)c1ccc(Cl)s1)C(=O)Nc1ccc(N2CCOCC2=O)c(C(F)(F)F)c1)OCc1ccccc1` [Example 26, {(R)-2-[(5-Chloro-thiophene-2-carbonyl)-amino]-1-[4-(3-oxo-morpholin-4-yl)-3-trifluoromethyl-phenylcarbaminyl]-ethyl}-carbamic acid benzyl ester], the Ki came out at 12 nM.
